Test results from PubChem BioAssay (NCI).
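These data come from cells grown in 96-well plates and exposed to compound for 48 hours at five concentrations. At the TGI there is no net growth.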

Key:
Assay in all cases: NCI tumour cell line growth inhibition, 48 h
[1] = system: BT-549 breast
[2] = system: MDA-N
[3] = system: HL-60(TB) leukemia
[4] = system: DMS 114 small cell lung
[5] = system: DMS 273 small cell lung
[6] = system: LXFL 529 NSCLC
[7] = system: M19-MEL melanoma
[8] = system: XF 498 CNS
[9] = system: HOP-18 NSCLC
[10] = system: RXF-631 renal
[11] = system: P388 leukemia
[12] = system: P388/ADR leukemia
[13] = system: SN12K1 renal

CO[C@](C(=O)OC[C@H]1[C@@H](COC(C)=O)[C@@H]2O[C@H]1c1cc3c(cc12)OCO3)(c1ccccc1)C(F)(F)F
TGI [1]: > 100 µM | TGI [2]: > 100 µM

Oc1ccc(NCn2c(=S)sc3ccccc32)cc1
TGI [1]: > 100 µM | TGI [3]: > 100 µM

CON(C)C(=O)C(Cc1ccccc1)NC(=O)OCc1ccccc1 (configuration not stated)
TGI [4]: > 100 µM | TGI [5]: > 100 µM | TGI [3]: > 100 µM | TGI [6]: > 100 µM | TGI [7]: > 100 µM | TGI [8]: > 100 µM

CCOC(=O)c1csc(NC(=O)CN2CCCC2)n1
TGI [3]: > 100 µM | TGI [2]: > 100 µM

O=C(CC1Sc2ccccc2NC1=O)Nc1ccccc1[N+](=O)[O-] (configuration not stated)
TGI [5]: > 100 µM | TGI [3]: > 100 µM | TGI [9]: > 100 µM | TGI [6]: > 100 µM | TGI [7]: > 100 µM | TGI [10]: > 100 µM | TGI [8]: > 100 µM

CC1NC(=O)C(C)C(c2ccccc2)N(N=O)C1c1ccccc1 (configuration not stated)
TGI [4]: > 100 µM | TGI [5]: > 100 µM | TGI [3]: 61.5 µM | TGI [9]: > 100 µM | TGI [11]: > 89.2 µM | TGI [12]: > 100 µM | TGI [13]: > 100 µM | TGI [8]: > 100 µM
